Results reported in patent US11739098B2 (BRISTOL-MYERS SQUIBB COMPANY, priority 2017, dated 2023).

Columns and labels:
Type in all cases: cell-based
[1] = target: T1, human TLR7 (Homo sapiens, UniProt Q9NYK1); experiment: TLR7 inhibition reporter assay (HEK-Blue cells, SEAP reporter, gardiquimod stimulation); conditions: HEK-Blue cells overexpressing human TLR7, SEAP reporter, gardiquimod 7.5 μM
T1 construct: host or cells: HEK-Blue cells (HEK293-derived reporter line)
T1 sequence (Q9NYK1 27-1049): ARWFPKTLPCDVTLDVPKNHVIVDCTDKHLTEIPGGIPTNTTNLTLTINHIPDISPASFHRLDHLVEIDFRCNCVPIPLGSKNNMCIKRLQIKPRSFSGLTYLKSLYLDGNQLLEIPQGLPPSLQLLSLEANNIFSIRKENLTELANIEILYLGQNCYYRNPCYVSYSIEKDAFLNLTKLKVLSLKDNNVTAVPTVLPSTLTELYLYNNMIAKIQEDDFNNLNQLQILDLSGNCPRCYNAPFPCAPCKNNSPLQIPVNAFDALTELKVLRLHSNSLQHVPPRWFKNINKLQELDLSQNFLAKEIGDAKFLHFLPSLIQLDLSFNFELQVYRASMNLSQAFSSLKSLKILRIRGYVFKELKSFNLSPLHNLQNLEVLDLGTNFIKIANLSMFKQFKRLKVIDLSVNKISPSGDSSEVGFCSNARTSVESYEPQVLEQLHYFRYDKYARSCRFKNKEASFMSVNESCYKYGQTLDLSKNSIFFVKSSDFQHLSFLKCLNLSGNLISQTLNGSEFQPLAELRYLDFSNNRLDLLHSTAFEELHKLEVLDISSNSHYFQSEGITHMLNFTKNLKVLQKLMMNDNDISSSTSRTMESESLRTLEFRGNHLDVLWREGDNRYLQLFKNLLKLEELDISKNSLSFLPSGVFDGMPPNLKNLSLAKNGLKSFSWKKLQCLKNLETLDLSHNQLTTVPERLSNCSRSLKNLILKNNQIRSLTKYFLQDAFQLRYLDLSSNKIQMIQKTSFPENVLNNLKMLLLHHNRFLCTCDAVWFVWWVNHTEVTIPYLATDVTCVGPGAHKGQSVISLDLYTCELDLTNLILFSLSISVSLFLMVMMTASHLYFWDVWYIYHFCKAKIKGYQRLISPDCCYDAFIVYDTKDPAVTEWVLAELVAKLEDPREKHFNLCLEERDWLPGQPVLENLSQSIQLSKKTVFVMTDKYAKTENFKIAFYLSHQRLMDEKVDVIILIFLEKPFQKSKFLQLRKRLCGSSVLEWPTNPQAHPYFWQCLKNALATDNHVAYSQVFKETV
How it was run: (§1)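 Cells seeded per well (15000 TLR7, 20,000 TLR8, 25,000 TLR9); compound added over 0.05 nM–50 μM for 30 min at room temperature; agonist added (TLR7 gardiquimod 7.5 μM, TLR8 R848 15.9 μM, TLR9 ODN2006 5 nM); 22 h at 37 °C; SEAP measured; percent inhibition calculated.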

[2] = target: T2, human TLR8 (Homo sapiens, UniProt Q9NR97); experiment: TLR8 inhibition reporter assay (HEK-Blue cells, SEAP reporter, R848 stimulation); conditions: HEK-Blue cells overexpressing human TLR8, SEAP reporter, R848 15.9 μM
T2 construct: host or cells: HEK-Blue cells (HEK293-derived reporter line)
T2 sequence (Q9NR97 27-1041): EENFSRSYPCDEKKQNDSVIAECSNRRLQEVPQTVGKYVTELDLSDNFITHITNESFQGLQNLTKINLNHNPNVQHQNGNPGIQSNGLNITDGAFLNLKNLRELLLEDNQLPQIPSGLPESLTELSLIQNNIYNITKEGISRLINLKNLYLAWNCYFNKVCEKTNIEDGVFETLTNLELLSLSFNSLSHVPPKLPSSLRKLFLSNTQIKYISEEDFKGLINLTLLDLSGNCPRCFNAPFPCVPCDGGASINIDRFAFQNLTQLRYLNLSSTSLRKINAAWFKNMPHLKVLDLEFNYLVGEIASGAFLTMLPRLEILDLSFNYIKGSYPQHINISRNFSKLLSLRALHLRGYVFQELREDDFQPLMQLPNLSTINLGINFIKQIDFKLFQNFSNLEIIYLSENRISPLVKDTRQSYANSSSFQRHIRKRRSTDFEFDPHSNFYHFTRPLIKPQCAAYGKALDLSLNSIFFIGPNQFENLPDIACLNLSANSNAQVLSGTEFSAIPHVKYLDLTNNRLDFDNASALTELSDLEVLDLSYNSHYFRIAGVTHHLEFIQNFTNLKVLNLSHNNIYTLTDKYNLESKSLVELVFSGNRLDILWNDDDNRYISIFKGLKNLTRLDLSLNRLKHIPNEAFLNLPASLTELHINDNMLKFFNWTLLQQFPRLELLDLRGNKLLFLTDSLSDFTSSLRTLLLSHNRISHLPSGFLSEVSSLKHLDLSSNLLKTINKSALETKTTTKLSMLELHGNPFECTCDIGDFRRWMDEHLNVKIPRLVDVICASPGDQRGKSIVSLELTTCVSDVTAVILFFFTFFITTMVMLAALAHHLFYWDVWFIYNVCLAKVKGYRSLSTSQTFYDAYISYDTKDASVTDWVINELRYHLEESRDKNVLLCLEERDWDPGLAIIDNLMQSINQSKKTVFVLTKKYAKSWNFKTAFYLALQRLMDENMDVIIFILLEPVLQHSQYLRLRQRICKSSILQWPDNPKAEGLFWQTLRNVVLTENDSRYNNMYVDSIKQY
How it was run: as §1

[3] = target: T3, human TLR9 (Homo sapiens, UniProt Q9NR96); experiment: TLR9 inhibition reporter assay (HEK-Blue cells, SEAP reporter, ODN2006 stimulation); conditions: HEK-Blue cells overexpressing human TLR9, SEAP reporter, ODN2006 5 nM
T3 construct: host or cells: HEK-Blue cells (HEK293-derived reporter line)
T3 sequence (Q9NR96 26-1032): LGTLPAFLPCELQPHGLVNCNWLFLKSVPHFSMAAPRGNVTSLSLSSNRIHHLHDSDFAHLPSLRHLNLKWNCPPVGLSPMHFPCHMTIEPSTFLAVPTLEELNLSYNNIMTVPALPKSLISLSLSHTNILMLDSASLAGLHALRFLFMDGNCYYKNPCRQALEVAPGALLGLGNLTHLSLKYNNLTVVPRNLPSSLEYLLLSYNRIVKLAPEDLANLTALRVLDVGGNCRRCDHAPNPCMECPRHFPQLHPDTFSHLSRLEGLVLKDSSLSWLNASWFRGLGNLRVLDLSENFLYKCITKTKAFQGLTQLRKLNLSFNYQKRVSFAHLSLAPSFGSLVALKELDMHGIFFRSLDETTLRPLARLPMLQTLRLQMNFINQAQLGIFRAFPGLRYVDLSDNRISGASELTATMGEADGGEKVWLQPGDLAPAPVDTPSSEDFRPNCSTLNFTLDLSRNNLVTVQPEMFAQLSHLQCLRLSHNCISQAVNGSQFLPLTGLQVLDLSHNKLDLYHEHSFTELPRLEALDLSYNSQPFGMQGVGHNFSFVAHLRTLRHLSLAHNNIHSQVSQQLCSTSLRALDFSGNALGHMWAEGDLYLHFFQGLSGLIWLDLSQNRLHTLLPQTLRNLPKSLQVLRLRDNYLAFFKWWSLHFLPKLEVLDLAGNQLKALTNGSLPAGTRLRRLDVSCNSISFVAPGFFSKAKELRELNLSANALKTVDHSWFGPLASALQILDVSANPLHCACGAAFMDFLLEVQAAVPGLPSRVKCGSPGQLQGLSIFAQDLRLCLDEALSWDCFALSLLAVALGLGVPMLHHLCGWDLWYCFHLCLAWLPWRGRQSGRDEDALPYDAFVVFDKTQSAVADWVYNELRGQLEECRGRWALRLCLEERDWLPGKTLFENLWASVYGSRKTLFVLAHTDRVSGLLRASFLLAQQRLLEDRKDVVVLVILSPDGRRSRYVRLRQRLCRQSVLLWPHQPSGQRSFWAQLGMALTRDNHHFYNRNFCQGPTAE
How it was run: as §1

Structure (SMILES) | IC50 [1] | IC50 [2] | IC50 [3]
CN1CC(C(=O)N2CCC(c3ccc4[nH]c(-c5ccc6nccn6c5)c(CC(F)F)c4c3)CC2)CC1=O (stereo not drawn) [Example 644, 4-(4-(3-(2,2-difluoroethyl)-2-(imidazo[1,2-a]pyridin-6-yl)-1H-indol-5-yl)piperidine-1-carbonyl)-1-methylpyrrolidin-2-one] | 0.1 to 1 µM | 1 to 50 µM | > 50 µM
CCc1c(-c2ccnc3[nH]ncc23)[nH]c2ccc(C3CCN(Cc4[nH]cnc4C)CC3)cc12 [Example 916, 4-(3-ethyl-5-(1-((4-methyl-1H-imidazol-5-yl)methyl)piperidin-4-yl)-1H-indol-2-yl)-1H-pyrazolo[3,4-b]pyridine] | 0.1 to 1 µM | 0.1 to 1 µM | 0.1 to 1 µM
Cc1cn2cc(-c3[nH]c4ccc(C5CCN(CC(=O)N(C)C)CC5)cc4c3CC(F)F)ccc2n1 [Example 416, 2-(4-(3-(2,2-difluoroethyl)-2-(2-methylimidazo[1,2-a]pyridin-6-yl)-1H-indol-5-yl)piperidin-1-yl)-N,N-dimethylacetamide] | < 0.1 µM | > 3.13 µM | < 0.1 µM
Cc1cc(-c2[nH]c3ccc(C4CCN(C(=O)CN(C)C)CC4)cc3c2C(C)C)cn2cc(C(=O)N(C)CCO)nc12 [Example 494, 6-(5-(1-(dimethylglycyl)piperidin-4-yl)-3-isopropyl-1H-indol-2-yl)-N-(2-hydroxyethyl)-N,8-dimethylimidazo[1,2-a]pyridine-2-carboxamide] | < 0.1 µM | < 0.1 µM | 1 to 50 µM
CC(C)c1c(-c2ccc(C#N)c3ncccc23)[nH]c2ccc(C3CCN(CCS(C)(=O)=O)CC3)cc12 [Example 796, 5-(3-isopropyl-5-(1-(2-(methylsulfonyl)ethyl)piperidin-4-yl)-1H-indol-2-yl)quinoline-8-carbonitrile] | < 0.1 µM | < 0.1 µM | 1 to 50 µM
CCOc1cc(-c2[nH]c3ccc(C4CCN(CC(=O)N(C)C)CC4)cc3c2C(C)C)cc2ncnn12 [Example 350, 2-(4-(2-(5-ethoxy-[1,2,4]triazolo[1,5-a]pyridin-7-yl)-3-isopropyl-1H-indol-5-yl)piperidin-1-yl)-N,N-dimethylacetamide] | < 0.1 µM | < 0.1 µM | 1 to 50 µM
CNCCN1CCC(c2ccc3[nH]c(-c4ccnc5[nH]ncc45)c(C(C)C)c3c2)C(F)C1 (stereo not drawn) [Example 678, 2-(3-fluoro-4-(3-isopropyl-2-(1H-pyrazolo[3,4-b]pyridin-4-yl)-1H-indol-5-yl)piperidin-1-yl)-N-methylethan-1-amine] | 0.1 to 1 µM | < 0.1 µM | 1 to 50 µM
Cc1cn2cc(-c3[nH]c4ccc(C5CCN(C(=O)C[C@H](C)O)CC5)cc4c3CC(F)F)ccc2n1 [Example 608, (S)-1-(4-(3-(2,2-difluoroethyl)-2-(2-methylimidazo[1,2-a]pyridin-6-yl)-1H-indol-5-yl)piperidin-1-yl)-3-hydroxybutan-1-one] | 0.1 to 1 µM | > 3.13 µM | 1 to 50 µM

The remaining lines, values ahead:

IC50 [1] | IC50 [2] | IC50 [3] | Structure (SMILES)
< 0.1 µM | 0.1 to 1 µM | 1 to 50 µM | CNC(=O)CN1CCC(c2ccc3[nH]c(-c4cc(C)c5nn(C)cc5c4)c(C(C)C)c3c2)CC1 [Example 378, 2-(4-(2-(2,7-dimethyl-2H-indazol-5-yl)-3-isopropyl-1H-indol-5-yl)piperidin-1-yl)-N-methylacetamide]
< 0.1 µM | < 0.1 µM | 0.1 to 1 µM | Cc1c(-c2ccnc3[nH]ccc23)[nH]c2ccc(C3CCN(C4CCN(C)CC4)CC3)cc12 [Example 810, 4-(3-methyl-5-(1′-methyl-[1,4′-bipiperidin]-4-yl)-1H-indol-2-yl)-1H-pyrrolo[2,3-b]pyridine]
< 0.1 µM | < 0.1 µM | 0.1 to 1 µM | COc1cc(-c2[nH]c3ccc(C4CCN(C(=O)CN(C)C)CC4)cc3c2C(C)C)cn2ccnc12 [Example 558, 2-(dimethylamino)-1-(4-(3-isopropyl-2-(8-methoxyimidazo[1,2-a]pyridin-6-yl)-1H-indol-5-yl)piperidin-1-yl) ethan-1-one]
< 0.1 µM | 0.1 to 1 µM | 1 to 50 µM | CC(C)c1c(-c2cnc3c(cnn3C)c2)[nH]c2ccc(C3CCN(C(=O)CN(C)C)CC3)cc12 [Example 504, 2-(dimethylamino)-1-(4-(3-isopropyl-2-(1-methyl-1H-pyrazolo[3,4-b]pyridin-5-yl)-1H-indol-5-yl)piperidin-1-yl)ethan-1-one]
< 0.1 µM | < 0.1 µM | < 0.1 µM | CNCCN1CCC(c2ccc3[nH]c(-c4ccc5nccn5c4)c(CC(F)F)c3c2)CC1 [Example 681, 2-(4-(3-(2,2-difluoroethyl)-2-(imidazo[1,2-a]pyridin-6-yl)-1H-indol-5-yl)piperidin-1-yl)-N-methylethan-1-amine]
< 0.1 µM | < 0.1 µM | 0.1 to 1 µM | CCc1c(-c2ccnc3[nH]nc(C)c23)[nH]c2ccc(C3CCNCC3)cc12 [Example 226, 4-(3-ethyl-5-(piperidin-4-yl)-1H-indol-2-yl)-3-methyl-1H-pyrazolo[3,4-b]pyridine]
